Laboratory results: patent US11319341B2, “Immune-stimulating soluble doxorubicin-conjugated complex” (Yafei (Shanghai) Biopharmaceutical Co., Ltd., priority 2016, dated 2022)
Non-standard residues stand in square brackets, D forms with d. Residues, ends and D or L forms follow the SMILES beside them. ξ: configuration not given here. *: point of attachment. Doxorubicin(3'-N) = COc1cccc2c1C(=O)c1c(O)c3c(c(O)c1C2=O)C[C@@](O)(C(=O)CO)C[C@@H]3O[C@H]1C[C@H](N*)[C@H](O)[C@H](C)O1; Hexanoyl(6-maleimido) = O=C1C=CC(=O)N1CCCCCC(=O)*; ξL = CC(C)CC(N)C(=O)O

Legend:
HT1080 cells = assay: Efficacy in HT1080 tumor model; format: in vivo; conditions: HT1080, nude mice, 18 umol/kg IV once weekly for 3 weeks
Text: Test purpose: to investigate the anti-tumor efficacy of QHL-086, QHL-092, QHL-095, QHL-087, QHL-010, QHL-117 in mice model for tumor treatment.
Test drug: C3, QHL-086, QHL-092, QHL-095, QHL-087, QHL-010, QHL-117 injections and mitomycin injection, diluted to corresponding concentrations by physiological saline when testing.
(§1) 1. Animal: nude mice of 6-8 weeks old, all female.
1) HT1080 cells were purchased from American type culture collection (ATCC) and identified according the specification provided by ATCC.
(§2) 2) Production of tumor. […] Mice were randomly grouped after the tumor reached at least 100 mm^3. Then treatment began and the day on which the treatment began was day 1.
According to the clinical application of C3, QHL-086, QHL-092, QHL-095, QHL-087, QHL-010, QHL-117 were intravenously injected (IV). C3, QHL-086, QHL-092, QHL-095, QHL-087, QHL-010, QHL-117 were administered in a low and same dose of 18 umol/kg. The control group was administered by physiological saline. Drugs were administered once weekly for 3 weeks.

[1] = system: Human liver cancer HepG2 cells; assay: Efficacy on human liver cancer HepG2 cells in nude mice; format: in vivo; conditions: 54 umol/kg IV once weekly for four weeks
Text: Test purpose: to investigate the anti-tumor efficacy of some compounds of the invention in mice model for tumor treatment.
Test drug: QHL-095, QHL-008, QHL-086, QHL-116, QHL-119, QHL-092, QHL-006, QHL-089, QHL-005, QHL-007, QHL-096, QHL-012, QHL-087, QHL-117, QHL-120, QHL-093, QHL-010, QHL-090, QHL-009, QHL-011 injections and control group injection, diluted to corresponding concentrations by physiological saline when testing.
as §1
1) Human liver cancer HepG2 cells were purchased from American type culture collection (ATCC) and identified according the specification provided by ATCC.
as §2
According to the clinical application of QHL-095, QHL-008, QHL-086, QHL-116, QHL-119, QHL-092, QHL-006, QHL-089, QHL-005, QHL-007, QHL-096, QHL-012, QHL-087, QHL-117, QHL-120, QHL-093, QHL-010, QHL-090, QHL-009, QHL-011, drugs were intravenously injected (IV). Compounds and control groups were administered in a dose of 54 umol/kg. The control group was administered by physiological saline. Drugs were administered once weekly for four weeks.

[2] = system: acidized human breast cancer (MDA-MB435) tumor tissue homogenates; assay: Activation efficiency of the linker by tumor tissue homogenates (HPLC); format: biochemical; conditions: Table 4-1; 37° C., MDA-MB435 tumor tissue homogenates pH6.0, compound 1 mg/ml
Experimental: When the C selected AAN, The activation of different S-C-A linker and control linker was evaluated in the activation assay, The S-C-A conjugate was used to dissolve and they were diluted for ten times to a concentration of 0.1 mM/ml. At 37° C., sample compounds were added into 100 μg acidized human breast cancer (MDA-MB435) tumor tissue homogenates (pH6.0) in a concentration of 1 mg/ml. The enzyme in tumor tissue homogenates could release and detected by HPLC, thereby comparing the activation efficiency of the linker by the tumor tissue.

[3] = Water solubility of freeze-dried compounds in water (observation and HPLC)
CT26 tumor cells = assay: CT26 tumor immune model: inhibition of tumor; format: in vivo; conditions: CT26 subcutaneous tumor, BALB/c mice, compounds 18 μmol/kg, mouse PD-1 antibody 5 mg/kg
Experimental: Test purpose: to investigate the anti-tumor efficacy of different compounds in CT26 cancer model for immune treatment.
1) CT26 tumor cells were purposed from ATCC. Cells were cultivated in DMEM culture solution containing 10% fetal bovine serum at 37° C. and 5% CO2. The cells were passaged for every three days and cells within the 15th passage were used.
(§3) 2) 5×10^5CT26 cancer cells were subcutaneously injected to the back of the nude mice. Mice were randomly grouped after the tumor reached at least 100 mm^3 Then treatment began and the day on which the treatment began was day 1.

tumor CD8+ T cells = assay: CT26 tumor immune model: tumor CD8+ T cells (CD8 positive in CD45 positive cells, flow cytometry); format: in vivo, BALB/c mice; conditions: ratio of CD8 positive cells in CD45 positive cells in tumor, compounds 18 μmol/kg, PD-1 antibody 5 mg/kg
Experimental: as §3
3) Analysis on tumor CD8+ T cells. The tumor tissue was homogenated and individual cells in the tumor were filtered, separated and washed by buffer twice, then cultivated with the leucocyte common antigen CD45-PE and CD8-FITC marked antibodies for 1 hour at ambient temperature. The cells were washed by phosphate buffer containing 1% fetal bovine serum twice and then analyzed for the ratio of the T lymphocyte antigen (CD8) positive cells in the leucocyte common antigen (CD45) positive cells by flow cytometry.

[4] = Tissue distribution of released doxorubicin in orthotopic transplantation CT26 tumor in liver; conditions: tissues at 1-72 hr, FIG. 2, FIG. 3
Experimental: Production of tumor model: CT26 tumor cells were purposed from ATCC. Cells were cultivated in DMEM culture solution containing 10% fetal bovine serum at 37° C. and 5% CO2. The cells were passaged for every three days and cells within the 15th passage were used.
5×10^5CT26 cancer cells were subcutaneously injected to the back of the nude mice. Mice were randomly grouped after the tumor reached 800-1000 mm^3. Then extract the tumor tissue and cleave to 100 mm3 tumor tissue block and orthotopic transplant into BALB/c mice liver. After 14 days, when orthotopic transplantation tumor grow up, 36 mice with orthotopic transplantation tumor for a group are treated with drug. Then collect the different tissue at 1, 6, 12, 24, 36, 72 hr to detect the concentration of releasing doxorubicin in different tissue.

Structure (SMILES) | Size of tumor (mm^3) Day 28 (HT1080 cells) [mm^3] | inhibitory rate on tumor Day 28 (HT1080 cells) [%] | Size of tumor (mm^3) Day 28 [1] [mm^3] | inhibitory rate on tumor Day 28 [1] [%] | Activation (%) [2] [%] | solubility [3] [µg/mL] | inhibitory rate on tumor % Day 18 (CT26 tumor cells; Day 18 as printed) [%] | Size of tumor (mm^3) Day 28 (CT26 tumor cells; Day 28) [mm^3] | CD8:CD45 (%) (tumor CD8+ T cells) | active doxorubicin tissue distribution, in words [4] | solubility (physchem) [µg/mL]
COc1cccc2c1C(=O)c1c(O)c3c(c(O)c1C2=O)C[C@@](O)(C(=O)CO)C[C@@H]3O[C@H]1C[C@H](N)[C@H](O)[C@H](C)O1 [C1 DOX, Doxorubicin] | 754.4 ± 587.4 | 56.8 | 1683.4 ± 1087.4 | 41.9 |  |  |  |  |  |  | 
COc1cccc2c1C(=O)c1c(O)c3c(c(O)c1C2=O)C[C@@](O)(C(=O)CO)C[C@@H]3O[C@H]1C[C@H](NC(=O)C(CC(C)C)NC(=O)[C@H](CC(N)=O)NC(=O)[C@H](C)NC(=O)[C@H](C)N)[C@H](O)[C@H](C)O1 (stereo partly drawn) [C2 AANL-DOX] (H-AAN[ξL]-{Doxorubicin(3'-N)}) | 318.5 ± 197.6 | 81.8 | 1564 ± 689.4 | 46.0 | 42.1 | < 1000 |  |  |  |  | 
COc1cccc2c1C(=O)c1c(O)c3c(c(O)c1C2=O)C[C@@](O)(C(=O)CO)C[C@@H]3O[C@H]1C[C@H](NC(=O)[C@H](CC(C)C)NC(=O)[C@H](CC(N)=O)NC(=O)[C@H](C)NC(=O)[C@H](C)NC(=O)CCCCCN2C(=O)C=CC2=O)[C@H](O)[C@H](C)O1 [C3 EMC-AANL-DOX] | 138.3 ± 124.6 | 92.1 | 218.3 ± 167.7 | 92.5 | 56.4 | < 5000 | 66.9 | 624.5 ± 313.6 | 8.9 | major in orthotopic tumor in liver | 
COc1cccc2c1C(=O)c1c(O)c3c(c(O)c1C2=O)C[C@@](O)(C(=O)CO)C[C@@H]3O[C@H]1C[C@H](NC(=O)[C@H](CC(C)C)NC(=O)[C@H](CC(N)=O)NC(=O)[C@H](C)NC(=O)[C@H](C)NC(=O)[C@@H](NC(=O)CCCCCN2C(=O)C=CC2=O)C(C)C)[C@H](O)[C@H](C)O1 [QHL-123] ({Hexanoyl(6-maleimido)}-VAANL-{Doxorubicin(3'-N)}) |  |  |  |  |  |  |  |  |  |  | > 2000
